Data on 3 compounds can be found in US10835533B2, “1 -((3S,4R)-4-(3-fluorophenyl)-1-(2-methoxyethyl)pyrrolidin-3-yl)-3-(4-methyl-3-(2-methylpyrimidin-5-yl)-1-phenyl-1H-pyrazol-5-yl)urea as a TrkA kinase inhibitor” (Array BioPharma Inc., priority 2014, dated 2020).

The target of series [1] is T1, CHO-K1 cells transfected with human wild type TrkA (Homo sapiens, UniProt P04629).
T1 construct: expressed in transfected cells; host or cells: CHO-K1
The series can be described thus: TrkA Cell Assay, phospho-TrkA ELISA (Example B). Format: cell-based. To be noted: assay of Example B, 30 ng/mL human NGF, read-out: averaged IC50 value, phospho-TrkA. The procedure: CHO-K1 cells transfected with human wild type TrkA were plated in a 96-well flat-bottom plate at 3×10^5 cells/well in complete DMEM medium containing 10% FBS and allowed to attach for 24 hours at 37° C., 5% CO2. Medium was then replaced with complete serum free assay medium and the cells were serum starved for 1 hour at 37° C., 5% CO2. Cells were treated with Compound 1, 2 or 3 using 1:3 serial dilutions with final concentrations ranging from 1 μM to […]. The compound was incubated on cells for 1 hour at 37° C., 5% CO2. Cells were then stimulated with a final concentration of 30 ng/mL human NGF for 7 minutes at 37° C., 5% CO2. Medium was removed and cells were lysed with lysis buffer containing phosphatase and protease inhibitors. Phospho-TrkA was measured by ELISA (R&D Catalog No. DYC2578). The ELISA captured total TrkA and detected total phosphor-tyrosine. Optical density was measured for each well using a Versamax reader at a wave length of 450 nm. The IC50 values were determined by fitting a four parameter model to the percent of control data.
(ELISA stands for enzyme-linked immunosorbent assay.)

Series [2] can be described thus: IV clearance, 1 mg/kg IV, mouse. The series is classed as in vivo. To be noted: for in vivo/in vitro correction factor: microsomal CLh divided by IV CL; for clearance: plasma, 1 mg/kg IV. The procedure:
(§1) In Table 1, the predicted human IV clearance values were calculated from compound concentration-versus-time data in plasma collected from pre-clinical species (mouse, rat, dog and monkey) following 1 mg/kg intravenous (IV) doses. Concentrations of compound in plasma were measured by LC-MS (liquid chromatography-mass spectrometry). AUCinf values (Area under the plasma concentration-time curve for a dosing interval from time 0 extrapolated to infinity) for individual Cp/t curves (concentration of the drug in plasma at any time t) were determined using linear-trapezoidal integration and first order extrapolation from terminal points of the Cp/t curves, and clearance (CL) was calculated using Dose/AUCinf.

The nature of series [3]: IV clearance, 1 mg/kg IV, rat. To be noted: for in vivo/in vitro correction factor: microsomal CLh divided by IV CL; for clearance: plasma, 1 mg/kg IV. Format: in vivo. As to the method:
as §1
Each of Compound 1, Compound 2, and Compound 3 was formulated by adding the compound (dry) to 20% Trappsol® (hydroxypropyl Beta cyclodextrin; CDT, Inc.) (aq) pH 5.0 and vortexing until a homogeneous suspension (PO) or solution (IV) was achieved.
For intravenous dosing, animals were anesthetized with 3% isoflurane, balanced O2. 1 mg/kg of Compound 1, Compound 2, and Compound 3 was administered at a dose volume of 1 mL/kg to the lateral tail vein. Blood was drawn from the opposite lateral tail vein while the animal was under anesthesia (3% isoflurane balanced with O2, 0.2 mL/timepoint) into NaEDTA tubes (1.5% v/v) at the following time points: 1, 5, 15, 30 minutes, and 1, 2, 4, 8 and 24 hours, and mixed thoroughly.
A single 12-point calibration curve was prepared by first serially diluting (3-fold) a 40-μg/mL stock solution of Compound 1, Compound 2, and Compound 3 in DMSO to provide standard solutions. Plasma (20 μL) was then added to the extraction plate, and 2.5 μL of each standard solution was added to the naïve plasma. A stock solution of an internal standard (10.0 μL of 2.5 μg/mL in acetonitrile) subsequently was added to each standard and sample solution. Proteinaceous material was precipitated from 20 μL of plasma with the addition of 317.5 μL of acetonitrile for a total volume of 350 μL. Samples were vortex-mixed for 5 minutes and spun in an Allegra X-12R centrifuge (Beckman Coulter, Fullerton, Calif.) for 15 minutes at approximately 1,500×g at 4° C. A 100-μL aliquot of each supernatant was transferred via a 550 μL Personal Pipettor (Apricot Designs, Monrovia, Calif.) to 96-well plates and diluted 1:1 with HPLC grade water. The resulting plates were sealed with plate mats and the amount of Compound 1n the plasma was analyzed by LC-MS/MS.
The LC-MS/MS system was comprised of an HTC-PAL autosampler (Leap Technologies, Inc., Carrboro, N.C.), an HP1100 HPLC (Agilent Technologies Inc., Santa Clara, Calif.), and an API4000 triple quadrupole mass spectrometer (Applied Biosystems, Foster City, Calif.). Chromatographic retention of the analyte and internal standard was achieved using a Phenomenex® Synergi 4μ Hydro-RP 80A column (2.1×30 mm, 4 μm particle size; Phenomenex, Torrance, Calif.) in conjunction with gradient conditions using mobile phases A (10 mM ammonium acetate in aqueous 0.1% formic acid and 1% isopropyl alcohol) and B (10 mM ammonium acetate in 89.9% acetonitrile, 10% methanol, 0.1% formic acid). The total run time, including re-equilibration time, for a single injection was 3.5 minutes and the flow rate was 0.8 mL/minute. Solvent B was increased from 5 to 95% in 1.0 minute, held at 95% for 1.0 minute, and then decreased to 5% in 0.1 minute.
The total run time, including re-equilibration time, for a single injection was 3.5 minutes and the flow rate was 0.8 mL/min. Solvent B was increased from 5 to 95% in 1.0 minutes, held at 95% for 1.0 minute, and then decreased to 5% in 0.1 minute. Mass spectrometric detection of the analytes was accomplished using ESI+ ionization mode. Ion current was optimized during infusion of a stock solution of Compound 1, Compound 2, and Compound 3. Analyte responses were measured by multiple reaction monitoring (MRM) of transitions unique to each compound. […]

The target of series [4] is T2, cloned hERG potassium channels expressed in human embryonic kidney cells (HEK293) (Homo sapiens, UniProt Q12809).
T2 construct: expressed in transfected cells; host or cells: HEK293
Put plainly: FASTPatch hERG Assay (Example F). The series is classed as cell-based. To be noted: HEK293, QPatch HT, room temperature. The procedure: This assay was used to measure the effects of Compound 1, Compound 2, and Compound 3 on cloned hERG potassium channels expressed in human embryonic kidney cells (HEK293). The in vitro effects of Compound 1, Compound 2, and Compound 3 on the hERG (human ether-a-go-go-related gene) potassium channel current (a surrogate for IKr, the rapidly activating, delayed rectifier cardiac potassium current) expressed in mammalian cells were evaluated at room temperature using the QPatch HT® (Sophion Bioscience A/S, Denmark), an automatic parallel patch clamp system. The test article was evaluated at 0.3, 1, 3, 10, 30 and 100 μM with each concentration tested in three or more cells (n≥3). The duration of exposure to each test article concentration was 3 minutes. A positive control confirmed the sensitivity of the test system to hERG inhibition.
A general note: hERG is a cardiac potassium channel; its block is linked to QT prolongation.

Series [5] concerns the target T3, MSK2 (Homo sapiens, UniProt O75676).
T3 construct: purchased Millipore, Inc. (KinaseProfiler service)
Put plainly: KinaseProfiler kinase profiling. Format: biochemical. To be noted: 10 μM, ATP near Km. As to the method:
(§2) Compound 1 was tested for off-target kinase activity at a concentration of 10 μM by Millipore, Inc. in their KinaseProfiler™ service against all the kinases available in their full kinase panel. Compound 1 was run in duplicate at a concentration of ATP near the Km for each individual kinase according to Millipore's specifications. Data are reported as percent of control (POC) and are the average of the two replicates.

For series [6], the target named is T4, PKCdelta (Homo sapiens, UniProt Q05655).
T4 construct: purchased Millipore, Inc. (KinaseProfiler service)
Put plainly: KinaseProfiler kinase profiling. Format: biochemical. To be noted: 10 μM, ATP near Km. The procedure: as §2

Structures are written as SMILES.

T1 sequence (P04629 33-796): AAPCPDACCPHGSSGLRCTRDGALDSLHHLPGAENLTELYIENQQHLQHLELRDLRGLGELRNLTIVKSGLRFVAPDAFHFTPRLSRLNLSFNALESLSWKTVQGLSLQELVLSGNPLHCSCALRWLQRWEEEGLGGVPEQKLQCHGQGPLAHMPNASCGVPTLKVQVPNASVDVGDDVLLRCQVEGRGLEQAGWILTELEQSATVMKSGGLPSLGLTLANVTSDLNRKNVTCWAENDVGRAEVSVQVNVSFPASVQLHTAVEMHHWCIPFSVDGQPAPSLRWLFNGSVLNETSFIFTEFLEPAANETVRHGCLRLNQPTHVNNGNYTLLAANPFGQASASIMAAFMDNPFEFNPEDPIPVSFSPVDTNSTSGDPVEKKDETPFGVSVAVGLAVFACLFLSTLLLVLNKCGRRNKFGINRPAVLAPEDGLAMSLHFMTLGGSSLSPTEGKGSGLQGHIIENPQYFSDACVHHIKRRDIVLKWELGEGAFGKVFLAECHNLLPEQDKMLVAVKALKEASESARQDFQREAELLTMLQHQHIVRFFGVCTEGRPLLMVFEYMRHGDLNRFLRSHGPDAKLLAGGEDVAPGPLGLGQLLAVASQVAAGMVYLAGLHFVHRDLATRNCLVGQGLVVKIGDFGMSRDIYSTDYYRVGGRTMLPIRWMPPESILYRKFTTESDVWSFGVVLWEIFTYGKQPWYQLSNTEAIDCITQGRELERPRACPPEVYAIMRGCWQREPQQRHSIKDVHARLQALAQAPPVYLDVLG
T2 sequence (Q12809 whole entry): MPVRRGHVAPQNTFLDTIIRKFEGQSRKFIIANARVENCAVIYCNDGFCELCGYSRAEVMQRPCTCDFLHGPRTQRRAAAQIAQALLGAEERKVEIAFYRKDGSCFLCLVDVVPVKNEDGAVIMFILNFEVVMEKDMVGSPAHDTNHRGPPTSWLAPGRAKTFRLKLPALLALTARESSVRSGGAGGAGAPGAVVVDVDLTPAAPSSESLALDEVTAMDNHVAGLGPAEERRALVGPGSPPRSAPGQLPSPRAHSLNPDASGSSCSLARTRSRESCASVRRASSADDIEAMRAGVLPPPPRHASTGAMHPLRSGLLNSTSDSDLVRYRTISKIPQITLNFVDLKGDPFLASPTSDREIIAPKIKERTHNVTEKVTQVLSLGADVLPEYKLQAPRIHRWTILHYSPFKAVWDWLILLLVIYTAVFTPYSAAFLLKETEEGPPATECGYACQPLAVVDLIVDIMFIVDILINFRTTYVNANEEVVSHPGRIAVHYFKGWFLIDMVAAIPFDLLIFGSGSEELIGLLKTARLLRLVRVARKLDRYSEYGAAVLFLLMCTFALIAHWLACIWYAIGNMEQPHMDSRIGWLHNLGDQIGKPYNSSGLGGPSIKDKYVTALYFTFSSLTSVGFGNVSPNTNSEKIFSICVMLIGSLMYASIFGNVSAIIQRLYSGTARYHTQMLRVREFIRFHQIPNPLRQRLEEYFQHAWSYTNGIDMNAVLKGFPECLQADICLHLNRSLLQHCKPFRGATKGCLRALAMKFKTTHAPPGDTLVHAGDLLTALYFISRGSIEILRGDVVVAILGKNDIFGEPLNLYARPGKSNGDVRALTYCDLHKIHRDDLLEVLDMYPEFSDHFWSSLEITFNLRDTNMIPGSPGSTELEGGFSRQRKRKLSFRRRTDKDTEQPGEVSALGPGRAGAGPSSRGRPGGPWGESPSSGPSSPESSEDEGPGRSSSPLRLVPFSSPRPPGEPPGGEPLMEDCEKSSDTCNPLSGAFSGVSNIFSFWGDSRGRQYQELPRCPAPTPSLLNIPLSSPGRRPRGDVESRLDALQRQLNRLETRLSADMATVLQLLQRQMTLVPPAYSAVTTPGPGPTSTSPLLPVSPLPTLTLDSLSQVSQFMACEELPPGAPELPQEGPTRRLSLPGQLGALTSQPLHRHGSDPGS
T3 sequence (O75676 whole entry): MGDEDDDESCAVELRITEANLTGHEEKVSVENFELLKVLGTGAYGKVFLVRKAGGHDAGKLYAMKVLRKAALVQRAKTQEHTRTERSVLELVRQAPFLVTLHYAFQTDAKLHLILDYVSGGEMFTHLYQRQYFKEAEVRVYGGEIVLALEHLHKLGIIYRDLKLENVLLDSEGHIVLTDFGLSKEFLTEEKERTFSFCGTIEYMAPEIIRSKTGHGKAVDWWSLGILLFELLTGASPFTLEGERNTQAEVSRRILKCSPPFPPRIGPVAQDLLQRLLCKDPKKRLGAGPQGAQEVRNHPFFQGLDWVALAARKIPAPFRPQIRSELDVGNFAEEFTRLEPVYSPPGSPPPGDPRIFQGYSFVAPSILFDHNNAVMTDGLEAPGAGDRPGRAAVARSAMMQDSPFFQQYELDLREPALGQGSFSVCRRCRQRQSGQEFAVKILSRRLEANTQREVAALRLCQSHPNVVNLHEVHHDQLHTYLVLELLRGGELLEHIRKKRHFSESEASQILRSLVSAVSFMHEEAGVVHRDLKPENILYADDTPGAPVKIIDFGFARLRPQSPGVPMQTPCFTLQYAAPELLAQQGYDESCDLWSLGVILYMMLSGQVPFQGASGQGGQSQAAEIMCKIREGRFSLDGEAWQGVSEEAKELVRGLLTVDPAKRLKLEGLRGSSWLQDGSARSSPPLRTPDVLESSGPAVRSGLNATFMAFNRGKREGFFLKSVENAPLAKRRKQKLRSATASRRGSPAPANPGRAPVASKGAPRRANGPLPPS
T4 sequence (Q05655 whole entry): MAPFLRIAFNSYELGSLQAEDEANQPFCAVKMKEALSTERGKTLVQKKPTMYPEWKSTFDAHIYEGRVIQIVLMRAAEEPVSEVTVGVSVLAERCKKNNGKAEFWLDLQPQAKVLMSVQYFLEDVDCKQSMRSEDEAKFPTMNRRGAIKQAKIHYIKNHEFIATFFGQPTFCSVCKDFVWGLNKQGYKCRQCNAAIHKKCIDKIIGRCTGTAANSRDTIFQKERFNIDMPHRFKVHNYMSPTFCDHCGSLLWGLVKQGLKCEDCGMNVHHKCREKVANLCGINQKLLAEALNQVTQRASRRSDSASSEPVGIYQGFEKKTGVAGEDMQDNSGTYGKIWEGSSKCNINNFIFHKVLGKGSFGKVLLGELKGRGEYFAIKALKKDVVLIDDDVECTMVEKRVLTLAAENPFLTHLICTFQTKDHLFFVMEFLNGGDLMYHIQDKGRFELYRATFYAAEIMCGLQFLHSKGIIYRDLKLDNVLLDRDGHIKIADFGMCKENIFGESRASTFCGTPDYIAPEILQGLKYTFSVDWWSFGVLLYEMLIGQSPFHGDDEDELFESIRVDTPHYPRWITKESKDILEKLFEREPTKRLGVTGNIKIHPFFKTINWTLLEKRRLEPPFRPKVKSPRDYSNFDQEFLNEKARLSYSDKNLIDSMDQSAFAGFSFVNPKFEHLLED

As a reminder, the IC50 is the concentration that inhibits the measured activity by half. What is called clearance is the rate of elimination divided by the concentration. On to `COCCN1C[C@@H](NC(=O)Nc2c(C)c(-c3cnn(C)c3)nn2-c2ccccc2)[C@H](c2ccc(F)cc2)C1` [Compound 3, 1-(1′,4-dimethyl-1-phenyl-1H,1′H-[3,4′-bipyrazol]-5-yl)-3-((3S,4R)-4-(4-fluorophenyl)-1-(2-methoxyethyl)pyrrolidin-3-yl)urea], for which the IC50 in series [1] stood at 6.1 nM. Moreover, in series [2], the “in vivo/in vitro correction factor” value came out at 0.85 and the clearance was found to be 71 mL/min/kg. In series [3], the “in vivo/in vitro correction factor” value is 0.88 and the clearance is 26 mL/min/kg.
For the compound `COCCN1C[C@@H](NC(=O)Nc2c(C)c(-c3cnc(C)nc3)nn2-c2ccccc2)[C@H](c2cccc(F)c2)C1` [Compound 1, 1-((3S,4R)-4-(3-fluorophenyl)-1-(2-methoxyethyl)pyrrolidin-3-yl)-3-(4-methyl-3-(2-methylpyrimidin-5-yl)-1-phenyl-1H-pyrazol-5-yl)urea], the IC50 is 1.9 nM in series [1] and 20000 nM in series [4]. Besides, in series [3], the “in vivo/in vitro correction factor” value is listed as 1.47. Besides, the clearance in series [3] was found to be 15 mL/min/kg. Moreover, the “Avg POC” value in series [5] came out at 116.5 POC; in series [6], 102 POC.
Turning to `COCCN1C[C@@H](NC(=O)Nc2c(C)c(-c3cnc(C)nc3)nn2-c2ccccc2)[C@H](c2ccc(F)c(F)c2)C1` [Compound 2, 1-((3S,4R)-4-(3,4-difluorophenyl)-1-(2-methoxyethyl)pyrrolidin-3-yl)-3-(4-methyl-3-(2-methylpyrimidin-5-yl)-1-phenyl-1H-pyrazol-5-yl)urea], the 50% inhibitory concentration (IC50) in series [1] stood at 1.3 nM; in series [4], 6900 nM. Moreover, the “in vivo/in vitro correction factor” value in series [2] is listed as 1.36; in series [3], 0.76. The clearance in series [2] is 42 mL/min/kg; in series [3] it was 29 mL/min/kg.
